Measured values reported in patent US7927600B2, “Anti-allergic pharmaceutical composition containing at least one allergen and at least one antihistamine compound” (priority 2001, dated 2011).

System: allergic patients
Experiment: Example 4: adverse effects
Type: in vivo, human
Conditions: patients of Example 4

SMILES: CCOc1c(N)c2c(c(OCC)c1OCC)C(C1c3c(cc4c(c3OC)OCO4)CCN1C)OC2=O (stereo not shown) [Hypostamine, tritoqualine]
- Adverse Effects, Conclusion (frequency): Very rare
